Key:
[1] = solubility / achievable concentration of sodium 4-phenylbutyrate in water; format: physicochemical
Description: In another embodiment, this invention provides a process of preparing a supersaturated solution of sodium 4-phenylbutyrate in water by adding sufficient water to a known quantity of sodium 4-phenylbutyrate at an elevated temperature of about 30° to about 80° C. to produce a concentration of about 600 mg/mL.
As described in more detail below, this invention describes a process of preparing a highly concentrated solution of sodium 4-phenylbutyrate, having a concentration 500 mg/mL in water by dissolving 5 g of sodium 4-phenylbutyrate in about 3.5 mL water to yield a solution volume of about 10 mL. The temperature can be room temperature (25° C.) or an elevated temperature, preferably in the range of up to about 80° C. We found it is more difficult to make this solution at room temperature, but the solution can be made at a higher temperature and then cooled to room temperature without precipitating resulting. […] Therefore, due to likely micelle formation of sodium 4-phenylbutyrate (which we term the self-associated polymeric form), the high concentration of about 500 mg/mL can be achieved in solution. […] This novel invention thus provides a dosage form better able to help the patients presently administered with a high volume dosage of sodium 4-phenylbutyrate. […]

[2] = cold storage of the highly concentrated aqueous solution (freezing / precipitation); format: physicochemical
Description: As described in more detail below, this invention describes a process of preparing a highly concentrated solution of sodium 4-phenylbutyrate, having a concentration 500 mg/mL in water by dissolving 5 g of sodium 4-phenylbutyrate in about 3.5 mL water to yield a solution volume of about 10 mL. The temperature can be room temperature (25° C.) or an elevated temperature, preferably in the range of up to about 80° C. We found it is more difficult to make this solution at room temperature, but the solution can be made at a higher temperature and then cooled to room temperature without precipitating resulting. […] Therefore, due to likely micelle formation of sodium 4-phenylbutyrate (which we term the self-associated polymeric form), the high concentration of about 500 mg/mL can be achieved in solution. […] This novel invention thus provides a dosage form better able to help the patients presently administered with a high volume dosage of sodium 4-phenylbutyrate. This invention is not intended to be limited by this discussion of micellar phases, or the presence or absence of other high concentration phases (such as sponge or L3, worm-like micelles, sheets and other laminar phases) that may be formed depending on the particular processing conditions and/or materials used. In the follow description the term “solution” is used without regard to whether a micellar phase is present.
About 160 g of sodium 4-phenylbutyrate was transferred to a 250 mL volumetric flask to which was then added about 90 mL of water and agitated with heating at a temperature 70° C. to dissolve. The mixture was cooled to 25° C. and 0.5 g of sodium benzoate was added and mixed well. This solution was compounded to 250 mL with water.

O=C([O-])CCCc1ccccc1.[Na+] [sodium 4-phenylbutyrate]
high concentration achieved in solution ([1]; in water, made at room temperature (25° C.) or up to about 80° C., then cooled without precipitation): about 500 mg/mL
maximum drug concentration achieved in the formulation ([1]; supersaturated solution in aqueous medium): about 700 mg/mL
freezing of the solution ([2]; 600 mg/mL solution at 0° C.): does not freeze
freezing or precipitation upon storage ([2]; about 500 mg/mL solution, 0° C. for two days): did not freeze or precipitate out
precipitation on further cooling ([2]; about 500 mg/mL solution, cooled to −4° C.): precipitation observed

Reference: patent US20070004805A1, “Process for preparation of liquid dosage form containing sodium 4-phenylbutyrate” (Navinta LLC, priority 2005, published 2007)
